Consider nine compounds from US7364866B2, “Drosophila G protein coupled receptors, nucleic acids, and methods related to the same” (Pharmacia & Upjohn Company, priority 1999, dated 2008).

pEC50: −log10 of the molar value. Where two headings read alike, the source gives them in different places. Residues, ends and D or L forms follow the SMILES beside them.

In assay [1] the test system is CHO cells stably transfected with a DmGPCR expression vector. In words: Intracellular calcium measurement using FLIPR, positive controls. The class given is cell-based, Chinese hamster. To be noted: positive controls: A23187 10 μM, ATP 4 μM. Here is the method:
(§1) Changes in intracellular calcium levels are another recognized indicator of G protein-coupled receptor activity, and such assays can be employed to screen for modulators of DmGPCR activity. For example, CHO cells stably transfected with a DmGPCR expression vector are plated at a density of 4×10^4 cells/well in Packard black-walled, 96-well plates specially designed to discriminate fluorescence signals emanating from the various wells on the plate. The cells are incubated for 60 minutes at 37° C. in modified Dulbecco's PBS (D-PBS) containing 36 mg/L pyruvate and 1 g/L glucose and one of four calcium indicator dyes (Fluo-3™ AM, Fluo-4™ AM, Calcium Green™-1 AM, or Oregon Green™ 488 BAPTA-1 AM), each at a concentration of 4 μM. […]
(§2) A calcium response is initiated by the addition of one or more candidate receptor agonist compounds, calcium ionophore A23187 (10 μM; positive control), or ATP (4 μM; positive control). Fluorescence is measured by Molecular Device's FLIPR with an argon laser (excitation at 488 nm). […] Basal fluorescence of cells was measured for 20 seconds prior to addition of candidate agonist, ATP, or A23187, and the basal fluorescence level was subtracted from the response signal. The calcium signal is measured for approximately 200 seconds, taking readings every two seconds. […]

The test system of the next assay is DmGPCR1. In words: Ca+2 mobilization assay (FLIPR), transfected CHO cells. The class given is cell-based, Drosophila melanogaster. How it is done:
as §1, §2

Assay [2] has as its target DmGPCR8. In words: [35S]GTPγS binding assay, dose response. The format is biochemical, Drosophila melanogaster. The settings on record: DmGPCR8 in CHO-10001A cells; given in words. Here is the method: The transfected cells were washed once with ice-cold Dulbecco's phosphate buffered saline (PBS), 5 ml per 10 cm plate, and scraped into 5 ml of the same buffer. Cell suspensions from multiple plates were combined and centrifuged at 500×g for 10 min at 4° C. The cell pellet was reconstituted in ice-cold TEE (25 mM TRIS, 5 mM EGTA, 5 mM EDTA). Convenient aliquots were snap-frozen in liquid nitrogen and stored at −70° C. After thawing, the cells were homogenized and centrifuged at 4° C., 500×g for 5 minutes to pellet nuclei and unbroken cells. The supernatant was centrifuged at 47,000×g for 30 minutes at 4° C. […] Membrane protein concentration was determined using the BCA Protein Assay Reagent from Pierce (Rockford, Ill.) and BSA as standard. […]
Ligand-induced stimulation of [^35S]GTPγS binding was expressed as fold increase over the basal activity with no ligand added. Each treatment was run either in triplicate, or, on occasion, in duplicate, and the binding (cpm) was calculated as means +/− standard deviations. Dose-response curves for the receptor/ligand systems were analyzed using a non-linear least square SAS model, y=Bmax X/(Kd+X). Other dose-response curves were analyzed using Prism (GraphPad Software, Inc. San Diego, Calif.) and the following equation y=Bottom+(Top−Bottom)/(1+10^LogEC50-X). […]
(In general: GTPγS resists hydrolysis and so accumulates on activated G proteins.)

Assay [3] concerns DmGPCR8. Nature of the assay: direct calcium mobilization assay (FLIPR). The class given is cell-based, Drosophila melanogaster. The settings on record: DmGPCR8 without chimeric G-protein. How it is done: as §1, §2
Assay [4] concerns DmGPCR8 and chimeric G-proteins. Nature of the assay: calcium mobilization (FLIPR) in CHO-10001A cells co-transfected with chimeric G-proteins. The class given is cell-based, Drosophila melanogaster. To be noted: for pEC50: read-out: EC50, calcium releasing activity. Here is the method:
Changes in intracellular calcium levels are another recognized indicator of G protein-coupled receptor activity, and such assays can be employed to screen for modulators of DmGPCR activity. For example, CHO cells stably transfected with a DmGPCR expression vector are plated at a density of 4×10^4 cells/well in Packard black-walled, 96-well plates specially designed to discriminate fluorescence signals emanating from the various wells on the plate. The cells are incubated for 60 minutes at 37° C. in modified Dulbecco's PBS (D-PBS) containing 36 mg/L pyruvate and 1 g/L glucose and one of four calcium indicator dyes (Fluo-3™ AM, Fluo-4™ AM, Calcium Green™-1 AM, or Oregon Green™ 488 BAPTA-1 AM), each at a concentration of 4 μM. Plates are washed once with modified D-PBS and incubated for 10 minutes at 37° C. to remove residual dye from the cellular membrane. In addition, a series of washes with modified D-PBS is performed immediately prior to activation of the calcium response.
A calcium response is initiated by the addition of one or more candidate receptor agonist compounds, calcium ionophore A23187 (10 μM; positive control), or ATP (4 μM; positive control). Fluorescence is measured by Molecular Device's FLIPR with an argon laser (excitation at 488 nm). (See, e.g., Kuntzweiler et al., Drug Dev. Res., 1998, 44(1), 14-20). The F-stop for the detector camera was set at 2.5, and the length of exposure was 0.4 milliseconds. Basal fluorescence of cells was measured for 20 seconds prior to addition of candidate agonist, ATP, or A23187, and the basal fluorescence level was subtracted from the response signal. The calcium signal is measured for approximately 200 seconds, taking readings every two seconds. Calcium ionophore A23187 and ATP increase the calcium signal 200% above baseline levels. In general, activated GPCRs increase the calcium signal approximately 10-15% above baseline signal.
Originally, we have chosen the GTPγS assay as a functional assay because agonist-driven stimulation of GTPγS reflects early events in the DmGPCR activation cascade, regardless of further activation pathways of various down-stream signaling events. This appears especially useful for the assessment of possible activation of orphan DmGPCRs with unknown functions and unknown signaling pathways. […] Since the GTPγS assay is known to poorly recognize GPCRs coupled to the Gq class of G-proteins, a Ca^+2 mobilization assay based on a FLIPR readout was used as well to evaluate Gq-coupled orphan GPCRs in CHO cells transiently transfected with DNA encoding Drosophila GPCRs.
A general note: Calcium flux is commonly read through the fluorescence of an indicator in the cells.

Another assay concerns muscle contraction. The settings on record: cited from earlier work.
For assay [5], the target named is T1, DmGPCR5 (Drosophila melanogaster, UniProt P30975, L70Q). Nature of the assay: biochemical. Details: expressed in transfected cells; host or cells: CHO-1000A (so in the source), transient. The settings on record: for maximal stimulation of GTPγS binding above basal level: dose-response. Here is the method: The transfected cells were washed once with ice-cold Dulbecco's phosphate buffered saline (PBS), 5 ml per 10 cm plate, and scraped into 5 ml of the same buffer. Cell suspensions from multiple plates were combined and centrifuged at 500×g for 10 min at 4° C. The cell pellet was reconstituted in ice-cold TEE (25 mM TRIS, 5 mM EGTA, 5 mM EDTA). Convenient aliquots were snap-frozen in liquid nitrogen and stored at −70° C. After thawing, the cells were homogenized and centrifuged at 4° C., 500×g for 5 minutes to pellet nuclei and unbroken cells. The supernatant was centrifuged at 47,000×g for 30 minutes at 4° C. The membrane pellet was washed once with TEE, resuspended in 20 mM HEPES, pH 7.4, 100 mM NaCl, 10 mM MgCl2, 1 mM EDTA (assay buffer), aliquoted and frozen in liquid nitrogen. Membrane aliquots were stored at −70° C. Membrane protein concentration was determined using the BCA Protein Assay Reagent from Pierce (Rockford, Ill.) and BSA as standard.
Initially, reaction mixtures were prepared in 96-well polypropylene plates (Nunc). In each well, peptide aqueous solution (20 μl, 10×), or water controls (20 μl), 18.2 μM GDP in assay buffer (0.11 ml, 10 μM final), and membranes suspended in assay buffer (50 μl, 10 μg membrane protein) were mixed and placed on ice. […] Then the membranes were washed 3 times with 0.25 ml ice-cold wash buffer/well (10 mM HEPES, 10 mM MgCl2, pH 7.4) and vacuum filtered. […] Each treatment was carried out in triplicates.
Ligand-induced stimulation of [^35S]GTPγS binding was expressed as fold increase over the basal activity with no ligand added. Each treatment was run either in triplicate, or, on occasion, in duplicate, and the binding (cpm) was calculated as means +/− standard deviations. Dose-response curves for the receptor/ligand systems were analyzed using a non-linear least square SAS model, y=Bmax X/(Kd+X). Other dose-response curves were analyzed using Prism (GraphPad Software, Inc. San Diego, Calif.) and the following equation y=Bottom+(Top−Bottom)/(1+10^LogEC50-X).
Originally, we have chosen the GTPγS assay as a functional assay because agonist-driven stimulation of GTPγS reflects early events in the DmGPCR activation cascade, regardless of further activation pathways of various down-stream signaling events. This appears especially useful for the assessment of possible activation of orphan DmGPCRs with unknown functions and unknown signaling pathways. The GTPγS assay was carried out with membranes prepared from CHO cells transiently transfected with DNA encoding Drosophila GPCRs using a 96-well MultiScreen G/FB filter plates and a MultiScreen vacuum manifold (Millipore) for filtration. Since the GTPγS assay is known to poorly recognize GPCRs coupled to the Gq class of G-proteins, a Ca^+2 mobilization assay based on a FLIPR readout was used as well to evaluate Gq-coupled orphan GPCRs in CHO cells transiently transfected with DNA encoding Drosophila GPCRs.

In assay [6] the target is T1, DmGPCR5. In words: cell-based.
Source text: The photoprotein luciferase provides another useful tool for assaying for modulators of DmGPCR activity. Cells (e.g., CHO cells or COS7 cells) are transiently co-transfected with both a DmGPCR expression construct (e.g., DmGPCR in pzeoSV2) and a reporter construct which includes a gene for the luciferase protein downstream from a transcription factor binding site, such as the cAMP-response element (CRE), AP-1, or NF-kappa B. Agonist binding to receptors coupled to the Gs subtype of G proteins leads to increases in cAMP, thereby activating the CRE transcription factor and resulting in expression of the luciferase gene. […] Luciferase activity may be quantitatively measured using, e.g., luciferase assay reagents that are commercially available from Promega (Madison, Wis.).
In one exemplary assay, CHO cells are plated in 24-well culture dishes at a density of 100,000 cells/well one day prior to transfection and cultured at 37° C. in MEM (Gibco/BRL) supplemented with 10% fetal bovine serum, 2 mM glutamine, 10 μg/ml penicillin, and 10 μg/ml streptomycin. […] After incubation for 15 minutes at room temperature, 15 μl of the lysate is mixed with 50 μl of substrate solution (Promega) in an opaque-white, 96-well plate, and the luminescence is read immediately on a Wallace model 1450 MicroBeta scintillation and luminescence counter (Wallace Instruments, Gaithersburg, Md.). […]

T1 sequence (P30975 whole entry L70Q): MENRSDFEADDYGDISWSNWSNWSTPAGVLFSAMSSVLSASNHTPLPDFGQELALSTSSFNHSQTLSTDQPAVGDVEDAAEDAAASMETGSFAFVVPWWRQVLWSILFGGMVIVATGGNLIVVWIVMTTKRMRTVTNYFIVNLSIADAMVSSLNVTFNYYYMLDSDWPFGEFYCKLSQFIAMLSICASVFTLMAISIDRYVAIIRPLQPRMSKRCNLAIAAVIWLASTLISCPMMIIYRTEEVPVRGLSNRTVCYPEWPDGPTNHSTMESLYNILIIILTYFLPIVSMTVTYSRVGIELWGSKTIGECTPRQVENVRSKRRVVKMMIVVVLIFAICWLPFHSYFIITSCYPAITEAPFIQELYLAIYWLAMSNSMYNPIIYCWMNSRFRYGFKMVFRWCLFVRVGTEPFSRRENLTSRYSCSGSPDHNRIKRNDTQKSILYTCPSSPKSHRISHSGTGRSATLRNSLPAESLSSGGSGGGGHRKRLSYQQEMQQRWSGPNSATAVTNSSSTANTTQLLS

Consider `CNc1ccc2oc(C[C@H]3O[C@@]4(CC[C@H]3C)O[C@H]([C@H](C)C(=O)c3ccc[nH]3)[C@H](C)C[C@H]4C)nc2c1C(=O)O` [A23187], for which the “increase of the calcium signal above baseline levels” value in assay [1] stood at 200%.
`CC(C)C[C@H](NC(=O)[C@H](CCCNC(=N)N)NC(=O)[C@H](CC(C)C)NC(=O)[C@H](CCC(N)=O)NC(=O)[C@@H]1CCCN1C(=O)CNC(=O)[C@H](CCCNC(=N)N)NC(=O)[C@H](C)N)C(=O)N[C@@H](CCCNC(=N)N)C(=O)N[C@@H](Cc1ccccc1)C(N)=O` [ARGPQLRLRF-NH2] (H-ARGPQLRLRF-NH2; N-terminus assumed): the negative logarithm of the EC50 (pEC50) (usually the negative decadic logarithm of the EC50, by convention in mol/L) with DmGPCR1 was 6.70 to 7.00.
Take `Nc1ncnc2c1ncn2[C@@H]1O[C@H](COP(=O)(O)OP(=O)(O)OP(=O)(O)O)[C@@H](O)[C@H]1O` [ATP]: the “increase of the calcium signal above baseline levels” value in assay [1] is on record as 200%.
Take `CC[C@H](C)[C@@H]1NC(=O)[C@@H]2CCCN2C(=O)[C@H](CC(N)=O)NC(=O)[C@H](Cc2ccccc2)NC(=O)[C@H](Cc2ccc(O)cc2)NC(=O)[C@@H](NC(=O)[C@H](CCC(N)=O)NC(=O)[C@H](CCCNC(=N)N)NC(=O)[C@H](Cc2ccc(O)cc2)NC(=O)[C@H](CCCNC(=N)N)NC(=O)[C@@H](NC(=O)[C@@H]2CCC(=O)N2)C(C)C)CSSC[C@@H](C(=O)N[C@@H](Cc2ccccc2)C(=O)O)NC(=O)[C@H](CO)NC1=O` [DST-C, pGlu-Val-Arg-Tyr-Gln-Cys-Tyr-Phe-Asn-Pro-Ile-Ser-Cys-Phe-OH]: at DmGPCR8 [2], the “EC50, GTPγS-binding responses” value is on record as “low nanomolar range”. For the same compound, in the assay with DmGPCR8 [3], the “activity in direct calcium mobilization assay (FLIPR)” value is on record as “did not show any activity”. Also, the negative logarithm of the EC50 (pEC50) in assay [4] (co-transfected with DmGPCR8 and Gqi5) was roughly 7.52; in assay [4] (co-transfected with DmGPCR8 and Gqo5), roughly 7.52; in assay [4] (co-transfected with DmGPCR8 and Gqz5) it was 6.61. Also, the calcium mobilization result in assay [4] (co-transfected with DmGPCR8 and Gqs5) is “no calcium mobilization was observed”. Also, the “inhibition of muscle contraction” value in the assay with muscle contraction is “potent and prolonged inhibition”.
Regarding `CC[C@H](C)[C@H](NC(=O)[C@H](Cc1ccccc1)NC(=O)[C@H](CO)NC(=O)[C@H](CO)NC(=O)[C@@H](NC(=O)[C@@H]1CCCN1C(=O)[C@H](C)N)[C@@H](C)O)C(=O)NCC(=O)N[C@@H](CCSC)C(=O)N[C@@H](CCCNC(=N)N)C(N)=O` [DTK-1, APTSSFIGMR-NH2] (H-APTSSFIGMR-NH2), the negative-log EC50 (pEC50) on DmGPCR5 [5] was 6.30 to 6.60.
`CC(C)C[C@H](NC(=O)CNC(=O)[C@H](Cc1ccc(O)cc1)NC(=O)[C@H](Cc1ccccc1)NC(=O)[C@H](C)NC(=O)[C@H](CC(C)C)NC(=O)[C@@H]1CCCN1C(=O)[C@H](C)N)C(=O)N[C@@H](CCCNC(=N)N)C(N)=O` [DTK-2, APLAFYGLR-NH2] (H-APLAFYGLR-NH2) showed a pEC50 at DmGPCR5 [6] of 5.97. Also, the “EC50, stimulation of GTPγS binding” value at DmGPCR5 [5] (DmGPCR5, given in words) is “low micromolar range”.
At DmGPCR5 [5], `CSCC[C@H](NC(=O)CNC(=O)[C@@H](NC(=O)[C@H](Cc1ccccc1)NC(=O)CNC(=O)[C@@H](NC(=O)[C@@H]1CCCN1C(=O)[C@H](C)N)[C@@H](C)O)[C@@H](C)O)C(=O)N[C@@H](CCCNC(=N)N)C(N)=O` [DTK-3, APTGFTGMR-NH2] (H-APTGFTGMR-NH2) gave a negative-log EC50 (pEC50) of 6.30 to 6.60.
Regarding `CSCC[C@H](NC(=O)CNC(=O)[C@H](CC(C)C)NC(=O)[C@H](Cc1ccccc1)NC(=O)CNC(=O)[C@H](CC(N)=O)NC(=O)[C@@H]1CCCN1C(=O)[C@H](C)N)C(=O)N[C@@H](CCCNC(=N)N)C(N)=O` [DTK-5, APNGFLGMR-NH2] (H-APNGFLGMR-NH2), the pEC50 on DmGPCR5 [6] was 6.71; on DmGPCR5 [5], 6.30 to 6.60. For the same compound, the “maximal stimulation of GTPγS binding above basal level” value at DmGPCR5 [5] (DmGPCR5) is on record as “ca. 1.5 fold”.
Consider `CSCC[C@H](NC(=O)CNC(=O)[C@H](Cc1ccc(O)cc1)NC(=O)[C@H](Cc1ccccc1)NC(=O)[C@H](C)NC(=O)[C@H](CC(C)C)NC(=O)[C@@H]1CCCN1C(=O)[C@H](C)N)C(=O)N[C@@H](CCCNC(=N)N)C(N)=O` [Met8-DTK-2, APLAFYGMR-NH2] (H-APLAFYGMR-NH2), for which the “maximal stimulation of GTPγS binding above basal level” value on DmGPCR5 [5] (DmGPCR5) is reported as “ca. 1.5 fold”.
